By GI50 is commonly meant the concentration at which growth is held to half of that of the control.

GI50 data for 1 compound are collected here from patent publication EP2924040A1, “2-Amino-1-(o-tolyl)pyrrolo[3,2-b]quinoxaline-3-carboxamide derivates” (Universität Zürich, priority 2014, dated 2015).

In this assay the test system is A498. Put plainly: Cell culture and GI50 determination (resazurin). It is filed as cell-based. Particulars: Homo sapiens, A498, 48h incubation. How it is done:
MDA-MB-231 (breast cancer) and KM12 (colon cancer) cells obtained from the UZH Cancer Institute, HOP-92 (lung cancer) cells purchased from the National Cancer Institute (NCl) and A498 (kidney cancer) cells obtained from Prof. Krek (Institute of Cell Biology, ETH Zurich) were cultured in Dulbecco's modified Eagle's medium (DMEM) supplemented with 10% (v/v) fetal bovine serum. K562 leukemia cells obtained from Dr. Silvio Hemmi (Institute of Molecular Life Sciences, UZH) were cultured using RPMI medium supplemented with 5% (v/v) fetal bovine serum. All the media was additionally supplemented with 100 units/mL of penicillin, 100µg/mL of streptomycin, 4.5 g/L glucose, 0.11g/L sodium pyrubate and 2mM glutamine and the cells were grown at 37 °C in 5% CO2 atmosphere with 80% relative humidity.
MDA-MB-231, HT-29, KM12, HOP-92 and A498 cells were plated at 10,000 cells per well (100 µL per well) in 96-well culture dishes and allowed to incubate for 24 h. The old media was removed, the cells were washed with PBS (phosphate-buffered saline) and fresh media was added. A 5 mmol/L solution of inhibitor (in 100% DMSO) was serially diluted in the culture media (12 different concentrations were used) and allowed to incubate for 72 h (MDA-MB-231) or 48h (A498). Control cells were treated with the same DMSO concentrations. After the incubation period the media was once more removed and the cells were washed with PBS to then be incubated with fresh media containing 86 nmol/L resazurin. After 3 hours, the fluorescence was quantified using a fluorescence microplate reader (Biotek, FLx800™) at the respective excitation and emission wavelength of 560 and 590 nm. Resazurin becomes fluorescent under mitochondrial reduction and its emission directly correlates with the metabolic stability of the cells. The measured fluorescence values were corrected from the control samples containing DMSO and GI50 values were determined by plotting the fraction of metabolically active cells against the log of the drug concentration. All measurements were performed at least in triplicate.
Background: Alamar Blue is a resazurin reagent that responds to reducing activity.

Each structure is given as a SMILES string.

Regarding `COc1ccc(C)c(-n2c(N)c(C(N)=O)c3nc4ccccc4nc32)c1` [Compound 8, 2-Amino-1-(5-methoxy-2-methylphenyl)-1H-pyrrolo[2,3-b]quinoxaline-3-carboxamide, reference compound], the GI50 was found to be 59.3 µM.
